Reference: patent US11173158B2, “Medicinal agent and beverage/food for preventing cerebral dysfunction and improving same” (PTC Therapeutics MP, Inc., priority 2010, dated 2021)
Entries after “also recorded” stand apart in the source; their conditions may differ.

What was measured:
PC12 cells = experiment: Total amount of biopterin in PC12 cells after addition to culture medium; format: cell-based; details: 100 μM added, 0-180 min, FIG. 2A
Procedure: (§1) In Example 1, where PC12 cells and RBL2H3 cells were used as aromatic monoamine synthesizing cells and sepiapterin was added to a culture medium, evaluation was made for a total amount of biopterin in the cells (a total amount of tetrahydrobiopterin, and its oxidant, dihydrobiopterin and biopterin, the same shall apply hereinafter).
(§2) The PC12 cells are cultured cells having properties of a neuron and it is known that they synthesize dopamine, noradrenaline and adrenaline, with tetrahydrobiopterin used as a coenzyme. The RBL2H3 cells are cultured cells having properties of a mast cell and it is known that they synthesize serotonin, with tetrahydrobiopterin used as a coenzyme. […]
(§3) A total amount of biopterin in the cells was measured by using a system of high performance liquid chromatography/fluorescence detection (HPLC/FD) according to the Fukusima-Nixon method (refer to Non-Patent Document 8).
(§4) A principle of the Fukushima-Nixon method is as follows. Upon oxidation with iodine under strong acid or alkaline conditions, tetrahydrobiopterin is quantitatively oxidized into oxidized-form biopterin under acid conditions and oxidized into oxidized-form pterin in which a side chain in the 6th-class position is removed under alkaline conditions. […] The oxidized-form biopterin and the oxidized-form pterin have strong natural fluorescent characteristics (excitation: 350 nm, fluorescence: 450 nm). […]

RBL2H3 cells = experiment: Total amount of biopterin in RBL2H3 cells after addition to culture medium; format: cell-based; details: 100 μM added, 0-180 min, FIG. 2B
Procedure: as §1, §2, §3, §4

SD rats = experiment: Amounts of tetrahydrobiopterin, serotonin and 5-hydroxyindoleacetic acid in rat brain after oral administration; format: in vivo; details: 0-8 hours after administration; for amount of tetrahydrobiopterin in the brain: FIG. 5A
Procedure: In Example 4, rats were used to measure amounts of tetrahydrobiopterin, serotonin and 5-hydroxyindoleacetic acid in the brain on administration of sepiapterin. Rats used were SD rats (7-8 week old, males) purchased from Japan SLC, Inc. The rats were kept in a dark place for 12 hours and in a light place for 12 hours and fed ad libitum with a diet (“MM-3” made by Funabashi Farm Co., Ltd.) and sterilized tap water as drinking water. Sepiapterin or tetrahydrobiopterin was dissolved in 10 mM hydrochloric acid, the resultant of which was orally administered to the rats (n=6) under diethylether anesthesia. After 1, 1.5, 2, 3, 4, 6 and 8 hours, the brains were excised under pentobarbital sodium anesthesia (pentobarbital was intraperitoneally administered at 40 mg/kg five minutes before), and the brain was divided into two portions at the median line to obtain left and right brain samples. Rats not treated with sepiapterin or tetrahydrobiopterin were used as samples at 0 hours after administration according to the same procedures. […] Amounts of serotonin and 5-hydroxyindoleacetic acid in the brain were calculated by adding 3.5 times the volume of 1.43% ascorbic acid-containing 100 mM hydrochloric acid which contains N-methyl serotonin as an internal standard to a right brain sample, homogenizing brain tissues, adding […] (final concentration of 5.5%) thereto, ice-cooling the resultant for removing protein and treating a supernatant thereof in a system of high performance liquid chromatography/fluorescence detection (HPLC/FD), (refer to Non-Patent Document 9). In the high performance liquid chromatography, as with Example 1, etc., “Fine-SIL-C18-5T (made by JASCO Corporation)” was used as a column. […] In the system of high performance liquid chromatography/fluorescence detection (HPLC/FD), 5-hydroxytryptophan (5HTP), serotonin, N-methyl serotonin, tryptophan and 5-hydroxyindoleacetic acid are eluted in the above order, thus making it possible to determine quantitatively these substances at the same time.

hph-1 mice = experiment: Amount of serotonin in brain of hph-1 mice after oral administration; format: in vivo, mouse; details: oral 20 mg/kg twice (2 h apart), brain 6 hours after first administration, FIG. 6
Procedure: The mice used were those of “hph-1” which were provided by Dr. […] (Institute of Metabolic Disease, Baylor University Medical Center, Dallas, Tex. 75226, USA). The mice are characterized as being defective in biosynthesis functions of tetrahydrobiopterin, with the level of tetrahydrobiopterin in the brain being from 40 to 50% as compared with ordinary mice. The mice were bred in a dark place for 12 hours and also in a light place for 12 hours and fed ad libitum with a diet (“MM-3” made by Funabashi Farm Co., Ltd.) and sterilized tap water as drinking water. An amount of serotonin was measured by dissolving sepiapterin or tetrahydrobiopterin in 0.01 M hydrochloric acid, thereafter administering orally each of the resultants at 20 mg/kg to the mice, giving another oral administration at the same dose two hours thereafter, and excised the brains from each mouse six hours after the first administration (n=7 in a group treated with sepiapterin, and n=8 in a group treated with tetrahydrobiopterin). […] In a control group, measurement was made similarly by orally administering 0.01M hydrochloric acid.

NZB mice = experiment: Forced swim test in mice; format: in vivo, mouse; details: intraperitoneal single dose 10 mg/kg, test after 40 minutes, five-minute swimming, FIG. 7
Procedure: In Example 6, the mice were subjected to a forced swim test after administration of sepiapterin. The forced swim test of the mice is a test method for evaluating antidepressant effects, and length of “immobile” time is a criterion of depression. Evaluation is made in such a manner that the shorter the “immobile” time is, the greater the antidepressant effects are. The mice used were NZB mice purchased from. Japan SLC, Inc (7-week old males). The mice were maintained in a dark place for 12 hours and in a light place for 12 hours and fed ad libitum with a diet (“MM-3” made by Funabashi Farm Co., Ltd.) and sterilized tap water as drinking water, except when they were constrained in an experiment. The mice are characterized in that they are more likely to develop an auto-immune disease with advancement of age. […] The mice which had been subjected to 15-minute preliminary swimming without administration of a drug, etc., on the previous day were used in the experiment. The mice were intraperitoneally administered tetrahydrobiopterin (n=7) or sepiapterin (n=5) at a single dose of 10 mg/kg and subjected to a forced swim test after 40 minutes to measure “immobile” time. The test was conducted under dim light by using a 15 cm-across and 15 cm-deep water tank kept at a temperature of 22° C. “Immobile” time was measured by calculating an added value of “immobile” time during five-minute-swimming. […]

Structure (SMILES) | change in the total amount of biopterin in the cells (PC12 cells) | change in the total amount of biopterin in the cells (RBL2H3 cells) | amount of tetrahydrobiopterin in the brain (SD rats) | amount of serotonin in the brain (SD rats; FIG. 5B) | amount of serotonin in the brain (hph-1 mice) | "immobile" time in forced swim test (NZB mice)
C[C@H](O)C(=O)C1=Nc2c(nc(N)[nH]c2=O)NC1 [sepiapterin, 7,8-Dihydro-6-[(S)-2-hydroxy-1-oxopropyl]-pterin] | remarkable increase | remarkable increase | significant increase | significantly increased | significant increase | significantly short
C[C@H](O)[C@H](O)[C@H]1CNc2nc(N)[nH]c(=O)c2N1 [tetrahydrobiopterin, Tetrahydrobiopterin] | substantially no change; also recorded: slight increase | substantially no change; also recorded: slight increase | did not show an increase | – | – | –
